In data set [1] the target is T1, Endothelial lipase (Homo sapiens, UniProt Q9Y5X9).
T1 sequence (Q9Y5X9 whole entry): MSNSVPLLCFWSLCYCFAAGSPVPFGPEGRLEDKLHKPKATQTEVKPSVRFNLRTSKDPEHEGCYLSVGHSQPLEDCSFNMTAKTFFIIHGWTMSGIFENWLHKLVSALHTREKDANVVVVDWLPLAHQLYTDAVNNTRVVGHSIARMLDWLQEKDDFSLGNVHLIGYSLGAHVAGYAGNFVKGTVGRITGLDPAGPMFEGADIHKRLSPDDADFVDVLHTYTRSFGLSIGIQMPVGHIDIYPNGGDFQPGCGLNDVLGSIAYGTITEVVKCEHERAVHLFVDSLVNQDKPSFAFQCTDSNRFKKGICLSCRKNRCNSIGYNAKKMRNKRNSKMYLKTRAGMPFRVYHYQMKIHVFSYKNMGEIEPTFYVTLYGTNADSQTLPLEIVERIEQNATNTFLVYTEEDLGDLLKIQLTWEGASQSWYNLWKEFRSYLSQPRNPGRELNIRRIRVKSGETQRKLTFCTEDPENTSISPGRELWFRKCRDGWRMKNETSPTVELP
Briefly: Inhibition of recombinant human endothelial lipase expressed in African green monkey COS7 cells using HDL as substrate pretreated for 10 mins followed by substrate addition and measured after 30 mins by LC/MS/MS analysis.

Data set [2] deals with T1, Endothelial lipase. In words: Inhibition of endothelial lipase (unknown origin) using D31-POPC-HDL as substrate after 2 hrs in presence of human serum by LC/MS analysis.
The nature of data set [3]: Metabolic stability in mouse liver microsomes assessed as parent compound remaining after 10 mins. It is filed as ADME, Microsome. The note with it: read-out: Stability.
A short description of data set [4]: Permeability of compound at pH 5.5 by PAMPA. The conditions noted are these: read-out: permeability. It is filed as ADME. A general note: PAMPA measures passive passage across an artificial lipid membrane.
Data set [5] can be described thus: Permeability of compound at pH 7.4 by PAMPA. It is filed as ADME. The note with it: read-out: permeability.
The nature of data set [6]: AUC in mouse at 1 mg/kg, iv. It is filed as ADME, organism-based. The note with it: in vivo.
Data set [7] in a line: Half life in mouse at 1 mg/kg, iv. It is filed as ADME, organism-based. The conditions noted are these: in vivo.
Data set [8] can be described thus: Unbound plasma concentration in mouse at 1 mg/kg, iv. It is filed as ADME, organism-based.
A short description of data set [9]: AUC in mouse at 1 mg/kg, po. The conditions noted are these: in vivo. It is filed as ADME, organism-based.
Data set [10] in a line: Bioavailability in mouse at 1 mg/kg, […]. It is filed as ADME, organism-based. The conditions noted are these: in vivo.
A short description of data set [11]: Oral bioavailability in mouse at 1 mg/kg. The note with it: in vivo. It is filed as ADME, organism-based.

`Nc1c(C(=O)N[C@@H]2CC[C@H](c3ccccc3)C2)[nH]c(=O)[nH]c1=O`: the IC50 (as a rule, the concentration at which inhibition is half-maximal) stood at 175 nM at Endothelial lipase [1] and 231000 nM at Endothelial lipase [2].
As for `CC(C)Cn1c(=O)[nH]c(C(=O)N[C@H]2CC[C@@H](c3ccccc3)CC2)c(O)c1=O`, the 50% inhibitory concentration (IC50) was 59 nM at Endothelial lipase [1] and 48000 nM at Endothelial lipase [2]. For the same compound, the remaining at 10 min in [3] amounted to 100%.
Regarding `Nc1c(C(=O)N[C@H]2CC[C@@H](c3ccccc3)CC2)[nH]c(=O)[nH]c1=O`, at Endothelial lipase [1], the IC50 came out at 91 nM.
As to `Nc1c(C(=O)N[C@H]2CC[C@@H](c3ccc(OCc4ccccc4)cc3)CC2)[nH]c(=O)[nH]c1=O`, the 50% inhibitory concentration (IC50) on Endothelial lipase [1] came out at 21 nM; on Endothelial lipase [2], 35000 nM. The remaining at 10 min in data set [3] is 85%.
Turning to `CCN1CC(C(=O)N[C@H]2CC[C@@H](c3ccccc3)CC2)=C(O)C1=O`, the IC50 on Endothelial lipase [1] was 82 nM.
In the case of `Nc1c(C(=O)N[C@@H]2CC[C@H](c3ccccc3)c3ccccc32)[nH]c(=O)[nH]c1=O`, the values for the half-maximal inhibitory concentration (IC50) on Endothelial lipase [1] and at Endothelial lipase [2] were 50 nM and 76000 nM, respectively. The remaining at 10 min in data set [3] came to 92%. For the same compound, the Papp in [4] was found to be 28.9 ×10⁻⁶ cm/s; in data set [5], 32.2 ×10⁻⁶ cm/s. Also, in data set [6], the area under the curve (AUC) – broadly, concentration integrated over time – turned out to be 11 µM·h. Moreover, the half-life (in general, the time in which the quantity being followed falls by half) in [7] was 1.4 h.
`Nc1c(C(=O)N[C@H]2CC[C@@H](c3ccccc3)C2)[nH]c(=O)[nH]c1=O`: the 50% inhibitory concentration (IC50) at Endothelial lipase [1] was 218 nM; at Endothelial lipase [2], over 952000 nM.
In the case of `O=C(N[C@H]1CC[C@@H](c2ccccc2)CC1)c1[nH]c(=O)[nH]c(=O)c1NC1CCCC1`, the values for the IC50 on Endothelial lipase [1] and at Endothelial lipase [2] were 156 nM and 436000 nM, respectively.
Consider `Nc1c(C(=O)N[C@H]2CC[C@@H](c3ccccc3)CC2)n(-c2ccccc2)c(=O)[nH]c1=O`, for which, on Endothelial lipase [1], the 50% inhibitory concentration (IC50) came out at 2350 nM.
Regarding `O=C(N[C@H]1CC[C@@H](c2ccccc2)CC1)c1[nH]c(=O)[nH]c(=O)c1O`, the half-inhibitory concentration (IC50) was found to be 26 nM on Endothelial lipase [1] and 25000 nM at Endothelial lipase [2]. Also, the remaining at 10 min in data set [3] was determined as 100%. The Papp in [4] was found to be 42.7 ×10⁻⁶ cm/s; in data set [5], 1.2 ×10⁻⁶ cm/s. Moreover, the fraction unbound (commonly the share of the substance not bound to proteins or other matrix) in data set [8] was found to be 0.15. Besides, the AUC in data set [6] was 5.5 µM·h. In [7], this compound had a half-life of 1.1 h.
As for `CCN1CC(C(=O)NC(C)CCc2ccc(Cl)c(Cl)c2)=C(O)C1=O` (stereo not drawn), the IC50 on Endothelial lipase [2] was over 476000 nM. Also, the remaining at 10 min in data set [3] turned out to be 92%. The Papp in [4] is 50.8 ×10⁻⁶ cm/s; in [5], 3.5 ×10⁻⁶ cm/s. The compound further came in with a fraction unbound in [8] of 0.023. In data set [6], this compound returned an area under the curve (AUC) of 300 µM·h.
On to `Nc1c(C(=O)N[C@@H]2CCc3cc(OCc4ccccc4)ccc32)[nH]c(=O)[nH]c1=O`, for which the IC50 at Endothelial lipase [1] was 17 nM; at Endothelial lipase [2], 80000 nM. For the same compound, in [3], the remaining at 10 min turned out to be 85%. The Papp in data set [5] stood at 76.8 ×10⁻⁶ cm/s.
Consider `O=C(N[C@H]1CC[C@@H](c2ccccc2)CC1)c1[nH]c(=O)n(CCO)c(=O)c1O`, for which the half-maximal inhibitory concentration (IC50) on Endothelial lipase [1] was 80 nM; on Endothelial lipase [2] it was over 143000 nM.
Take `O=C(N[C@H]1CC[C@@H](c2ccccc2)CC1)c1[nH]c(=O)n(Cc2ccccc2)c(=O)c1O`: the concentration for half-maximal inhibition (IC50) on Endothelial lipase [1] was determined as 117 nM; at Endothelial lipase [2], 32000 nM. Also, the results for the Papp in [4] and in data set [5] were 27.7 ×10⁻⁶ cm/s and 15.8 ×10⁻⁶ cm/s, respectively.
On to `CO[C@]1(c2ccc(F)cc2)CC[C@@H](NC(=O)c2[nH]c(=O)[nH]c(=O)c2N)CC1`, for which the half-inhibitory concentration (IC50) on Endothelial lipase [1] was 1010 nM.
For `Nc1c(C(=O)N[C@@H]2CCCc3c(OCc4ccccc4)cccc32)[nH]c(=O)[nH]c1=O`, the IC50 at Endothelial lipase [1] was found to be 49 nM; on Endothelial lipase [2], 81000 nM. Further, in [3], the remaining at 10 min turned out to be 79%. The Papp in data set [4] was determined as 96 ×10⁻⁶ cm/s; in data set [5], 71.2 ×10⁻⁶ cm/s. The same compound had an unbound share (fraction unbound) in [8] of 0.015. Also, the AUC in [6] came to 140 µM·h; in [9] it was 79 µM·h. For the same compound, the half-life in [7] was 6.7 h. The bioavailability in [10] and in data set [11] was 55% each time.

Values taken from ChEMBL document CHEMBL4325857, “Discovery and synthesis of tetrahydropyrimidinedione-4-carboxamides as endothelial lipase inhibitors” (Bioorg Med Chem Lett, 2018).
